Results: ChEMBL document CHEMBL5126521, “Analgesic Opioid Ligand Discovery Based on Nonmorphinan Scaffolds Derived from Natural Sources” (J Med Chem, 2022)
Bridge positions count the residues as written; N and C are the ends. Square brackets hold non-standard residues; d marks the D form. Peptide text beside a SMILES is read from it. d1Nal = N[C@H](Cc1cccc2ccccc12)C(=O)O; d2Nal = N[C@H](Cc1ccc2ccccc2c1)C(=O)O; Dmt = Cc1cc(O)cc(C)c1C[C@H](N)C(=O)O

Experiments:
Mus musculus [1] = assay: Antinociceptive activity in icv dosed C57BL/6J mouse assessed as tail withdrawal latency from warm water; assay type: functional
Mu-type opioid receptor [2] = target: T1, Mu-type opioid receptor (Homo sapiens, UniProt P35372); assay: Displacement of [3H]DAMGO from MOP (unknown origin) stably expressed in CHO cell membrane incubated for 90 mins by scintillation counter analysis; assay type: cell membranes
[3] = Toxicity in icv dosed C57BL/6J mouse assessed as antinociceptive activity tolerance; assay type: organism-based; details: in vivo, icv_or_intrathecal
Mus musculus [4] = assay: Antinociceptive activity in po dosed C57BL/6J mouse assessed as tail withdrawal latency from warm water; assay type: functional
[5] = Half life in mouse liver microsomes; assay type: ADME, Microsome
Mu-type opioid receptor [6] = target: T1, Mu-type opioid receptor; assay: Agonist activity at human MOP expressed in CHO-K1 cell membrane assessed as [35S]GTPgammaS binding; assay type: functional, cell membranes
[7] = target: T2, Delta-type opioid receptor (Homo sapiens, UniProt P41143); assay: Displacement of [3H]DPDPE from human DOP expressed in CHO-K1 cell membrane incubated for 60 mins by Microscint-counting analysis; assay type: cell membranes
Rattus norvegicus [8] = assay: Antinociceptive activity in Sprague-Dawley rat assessed as tail flick response in warm water administered icv; assay type: functional
Mu-type opioid receptor [9] = target: T1, Mu-type opioid receptor; assay: Agonist activity at human MOP expressed in CHO-K1 cell membrane assessed as [35S]GTPgammaS binding relative to control; assay type: functional, cell membranes; details: filed as agonist
Mu-type opioid receptor [10] = target: T1, Mu-type opioid receptor; assay: Displacement of [3H]DAMGO from human MOP expressed in CHO-K1 cell membrane incubated for 60 mins by Microscint-counting analysis; assay type: cell membranes
[11] = target: T3, Kappa-type opioid receptor (Rattus norvegicus, UniProt P34975); assay: Displacement of [3H]-norBNI from Wistar rat brain membrane KOP; assay type: cell membranes
Mus musculus [12] = assay: Antinociceptive activity in Swiss albino mouse assessed tail flick response in warm water administered icv; assay type: functional
Rattus norvegicus [13] = assay: Antinociceptive activity in Sprague-Dawley rat assessed as tail flick response in warm water administered iv; assay type: functional
[14] = Stability in rat brain homogenate assessed as half life; assay type: ADME, tissue-based
[15] = Stability in mouse serum assessed as half life; assay type: ADME, cell-free
[16] = Degradation half life in rat brain homogenate; assay type: ADME, tissue-based
[17] = Stability in rat brain homogenate assessed as compound remaining measured after 90 mins relative to control; assay type: ADME, tissue-based; details: read-out: Stability
[18] = target: T4, Kappa-type opioid receptor (Homo sapiens, UniProt P41145); assay: Inhibition of KOP (unknown origin)
[19] = target: T2, Delta-type opioid receptor; assay: Binding affinity to DOP (unknown origin)
[20] = target: T2, Delta-type opioid receptor; assay: Inhibition of DOP (unknown origin)
[21] = target: Delta-type opioid receptor (Mus musculus, UniProt P32300); assay: Displacement of [3H]DPDPE from mouse DOP stably expressed in CHO cell membrane; assay type: cell membranes
[22] = target: T4, Kappa-type opioid receptor; assay: Antagonist activity at human KOP stably expressed in CHO cell membrane assessed as [35S]GTPgammaS binding; assay type: functional, cell membranes
[23] = target: T3, Kappa-type opioid receptor; assay: Displacement of [3H]diprenorphine from rat KOP stably expressed in CHO cell membrane; assay type: cell membranes
Mu-type opioid receptor [24] = target: T1, Mu-type opioid receptor; assay: Antagonist activity at human MOP stably expressed in CHO cell membrane assessed as [35S]GTPgammaS binding; assay type: functional, cell membranes
[25] = target: T4, Kappa-type opioid receptor; assay: Binding affinity to human KOP stably expressed in CHO cell membrane assessed as [35S]GTPgammaS binding; assay type: cell membranes; details: filed as antagonist
[26] = target: T3, Kappa-type opioid receptor; assay: Inhibition of Wistar rat brain membrane KOP; assay type: cell membranes
Mus musculus [27] = assay: Antinociceptive activity in mouse administered icv; assay type: functional
Mu-type opioid receptor [28] = target: Mu-type opioid receptor (Cavia porcellus, UniProt P97266); assay: Antagonist activity at guinea pig ileum MOP; assay type: functional, tissue-based
Mus musculus [29] = species: Mus musculus; assay: Antinociceptive activity in mouse by tail pressure test; assay type: functional; details: Mus musculus; read-out: ED50

T3 sequence (P34975 whole entry): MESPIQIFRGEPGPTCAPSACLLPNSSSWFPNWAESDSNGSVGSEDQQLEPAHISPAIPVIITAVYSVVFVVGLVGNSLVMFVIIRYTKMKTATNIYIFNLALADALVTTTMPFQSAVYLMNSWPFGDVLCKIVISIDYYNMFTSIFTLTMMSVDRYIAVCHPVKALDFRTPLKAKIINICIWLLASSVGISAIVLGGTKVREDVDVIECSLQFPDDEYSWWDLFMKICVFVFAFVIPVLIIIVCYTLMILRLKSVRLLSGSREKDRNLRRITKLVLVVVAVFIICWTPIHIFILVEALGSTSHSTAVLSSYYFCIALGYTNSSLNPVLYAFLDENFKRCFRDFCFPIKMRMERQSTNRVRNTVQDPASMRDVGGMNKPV
T1 sequence (P35372 whole entry): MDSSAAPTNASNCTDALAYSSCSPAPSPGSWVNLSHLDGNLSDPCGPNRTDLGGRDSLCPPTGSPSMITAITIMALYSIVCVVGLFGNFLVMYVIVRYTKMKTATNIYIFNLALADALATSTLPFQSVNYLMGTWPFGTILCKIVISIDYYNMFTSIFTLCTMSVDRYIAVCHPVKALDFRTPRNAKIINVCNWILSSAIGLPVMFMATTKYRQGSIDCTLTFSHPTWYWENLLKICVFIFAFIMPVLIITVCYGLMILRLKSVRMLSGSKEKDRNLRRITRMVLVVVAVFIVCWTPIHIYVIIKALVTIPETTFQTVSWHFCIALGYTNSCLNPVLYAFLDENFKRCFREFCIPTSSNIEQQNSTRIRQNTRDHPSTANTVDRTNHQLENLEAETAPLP
T2 sequence (P41143 whole entry): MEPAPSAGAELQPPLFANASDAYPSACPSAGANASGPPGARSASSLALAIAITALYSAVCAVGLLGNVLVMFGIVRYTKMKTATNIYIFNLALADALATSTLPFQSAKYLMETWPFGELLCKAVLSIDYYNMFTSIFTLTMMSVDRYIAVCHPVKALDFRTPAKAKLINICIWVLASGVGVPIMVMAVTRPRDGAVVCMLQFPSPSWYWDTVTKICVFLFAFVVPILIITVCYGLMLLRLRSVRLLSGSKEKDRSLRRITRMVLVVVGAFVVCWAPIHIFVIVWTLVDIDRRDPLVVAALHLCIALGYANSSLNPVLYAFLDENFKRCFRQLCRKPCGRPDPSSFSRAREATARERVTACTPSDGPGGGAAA
T4 sequence (P41145 whole entry): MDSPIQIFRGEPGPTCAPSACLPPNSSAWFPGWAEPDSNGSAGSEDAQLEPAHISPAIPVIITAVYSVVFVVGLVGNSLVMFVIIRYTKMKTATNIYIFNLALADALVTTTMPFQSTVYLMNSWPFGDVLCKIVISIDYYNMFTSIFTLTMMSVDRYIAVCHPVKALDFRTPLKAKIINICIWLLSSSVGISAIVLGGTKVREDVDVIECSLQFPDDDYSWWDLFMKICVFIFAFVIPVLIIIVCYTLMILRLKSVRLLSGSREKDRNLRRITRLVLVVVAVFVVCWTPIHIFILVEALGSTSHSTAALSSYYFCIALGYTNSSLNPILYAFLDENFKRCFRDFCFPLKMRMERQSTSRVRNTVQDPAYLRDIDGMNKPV
Delta-type opioid receptor (Mus musculus, UniProt P32300), sequence (P32300 whole entry): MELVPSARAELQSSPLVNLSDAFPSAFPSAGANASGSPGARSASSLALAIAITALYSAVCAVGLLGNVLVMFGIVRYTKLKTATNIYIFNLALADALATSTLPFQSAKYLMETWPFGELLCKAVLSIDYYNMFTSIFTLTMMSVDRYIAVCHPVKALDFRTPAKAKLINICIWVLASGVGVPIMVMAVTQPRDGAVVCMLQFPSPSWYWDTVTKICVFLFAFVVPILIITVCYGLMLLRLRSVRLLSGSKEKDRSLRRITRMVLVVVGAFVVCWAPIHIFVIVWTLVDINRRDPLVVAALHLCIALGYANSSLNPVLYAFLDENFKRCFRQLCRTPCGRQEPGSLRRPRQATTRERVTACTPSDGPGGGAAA
Mu-type opioid receptor (Cavia porcellus, UniProt P97266), sequence (P97266 whole entry): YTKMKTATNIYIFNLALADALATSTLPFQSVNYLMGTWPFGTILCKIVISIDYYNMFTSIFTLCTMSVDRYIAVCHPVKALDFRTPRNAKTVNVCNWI

Molecule O=C1N[C@H](Cc2ccccc2)C(=O)N2CCC[C@@H]2C(=O)N[C@@H](Cc2ccccc2)C(=O)N[C@H]1Cc1c[nH]c2ccccc12 has an ED50 (Mus musculus [1]) of 0.75 nmol, a Ki (Mu-type opioid receptor [2]) of over 100000 nM and an ED50 [3] of 20.3 nmol. The ED50 (Mus musculus [4]) was 7.62 mg/kg and the half-life [5] was 54 min.

Work on NC(=O)[C@@H]1CC(=O)NCCCC[C@@H](NC(=O)[C@@H](N)Cc2ccc(O)cc2)C(=O)N[C@@H](Cc2c[nH]c3ccccc23)C(=O)N[C@@H](Cc2ccccc2)C(=O)N1 yielded an EC50 (Mu-type opioid receptor [6]) of 0.94 nM, a Ki [7] of 83 nM and an ED50 (Rattus norvegicus [8]) of 0.2 nmol. For the same molecule, the Emax (Mu-type opioid receptor [9]) was 100% and the Ki (Mu-type opioid receptor [10]) was 0.49 nM.

With Cc1cc(O)cc(C)c1C[C@H](N)C(=O)N[C@@H]1CCCCNC(=O)C[C@@H](C(N)=O)NC(=O)[C@@H](Cc2cccc3ccccc23)NC(=O)[C@H](Cc2ccccc2)NC1=O (H-[Dmt][dK]F[d1Nal]D-NH2; lactam 2-5) the Ki [11] was 1.78 nM and the ED50 (Mus musculus [12]) was 0.06 µg.

Molecule NC(=O)[C@@H]1CCC(=O)NCCCC[C@@H](NC(=O)[C@@H](N)Cc2ccc(O)cc2)C(=O)N[C@@H](Cc2c[nH]c3ccccc23)C(=O)N[C@@H](Cc2ccccc2)C(=O)N1 has an EC50 (Mu-type opioid receptor [6]) of 0.43 nM, a Ki [7] of 83 nM and an ED50 (Rattus norvegicus [8]) of 0.021 nmol. The Emax (Mu-type opioid receptor [9]) was 100%, the Ki (Mu-type opioid receptor [10]) was 0.63 nM and the ED50 (Rattus norvegicus [13]) was 2.2 mg/kg.

With NC(=O)[C@H](Cc1ccccc1)NC(=O)[C@H](Cc1ccccc1)NC(=O)[C@@H]1CCCN1C(=O)[C@@H](N)Cc1ccc(O)cc1 [ENDOMORPHIN 2] the half-life [14] was 15.9 min, the ED50 (Mus musculus [12]) was 6.88 nmol and the half-life [15] was 8.2 min. For the same molecule, the half-life [16] was 0.75 min and the remaining at […] [17] was 0%.

Molecule O=C1N[C@H](Cc2ccccc2)C(=O)N2CCC[C@@H]2C(=O)N[C@H](Cc2ccccc2)C(=O)N[C@H]1Cc1c[nH]c2ccccc12 has an ED50 (Mus musculus [1]) of 1 nmol, an ED50 [3] of 5.19 nmol and an ED50 (Mus musculus [4]) of 4.12 mg/kg. The half-life [5] was at most 30 min.

CC[C@@H]1CN2CCc3c([nH]c4cccc(OC)c34)[C@H]2C[C@@H]1/C(=C\OC)C(=O)OC gave an IC50 [18] of 10000 nM, a Ki [19] of over 10000 nM and an IC50 [20] of over 10000 nM.

Molecule C[C@H]1NC(=O)[C@H](Cc2ccccc2)NC(=O)[C@H]2CCCN2C(=O)[C@H](Cc2ccccc2)NC1=O has a Ki [21] of 10000 nM, an ED50 (Mus musculus [1]) of 0.28 nmol and an IC50 [22] of 922 nM. It also gave a Ki [23] of 1720 nM and an IC50 (Mu-type opioid receptor [24]) of 1100 nM.

Molecule O=C1N[C@H](Cc2ccccc2)C(=O)N[C@H](Cc2c[nH]c3ccccc23)C(=O)N[C@@H](Cc2ccccc2)C(=O)N2CCC[C@H]12 has an ED50 (Mus musculus [1]) of 0.56 nmol, an ED50 [3] of 0.49 nmol and an ED50 (Mus musculus [4]) of 4.72 mg/kg. For the same molecule, the half-life [5] was at most 30 min.

Cc1cc(O)cc(C)c1C[C@H](N)C(=O)N1Cc2ccccc2C[C@H]1C(=O)N[C@@H](Cc1ccccc1)[C@@H](O)C(=O)N[C@@H](Cc1ccccc1)C(N)=O showed a half-life [16] of 120 min.

Molecule O=C1N[C@H](Cc2c[nH]c3ccccc23)C(=O)N[C@@H](Cc2ccccc2)C(=O)N2CCC[C@@H]2C(=O)N[C@H]1Cc1ccccc1 has a Ki [21] of 4190 nM, an ED50 (Mus musculus [4]) of 60 mg/kg and a Kb [25] of 20.2 nM.

In the case of Cc1cc(O)cc(C)c1C[C@H](N)C(=O)N[C@@H]1CCCCNC(=O)C[C@@H](C(N)=O)NC(=O)[C@@H](Cc2ccc3ccccc3c2)NC(=O)[C@H](Cc2ccccc2)NC1=O (H-[Dmt][dK]F[d2Nal]D-NH2; lactam 2-5), the Ki [11] is reported as 1.02 nM and the ED50 (Mus musculus [12]) is reported as 0.08 µg.

NC(=O)[C@@H]1CC(=O)NCCCC[C@@H](NC(=O)[C@@H](N)Cc2ccc(O)cc2)C(=O)N[C@@H](Cc2ccccc2)C(=O)N[C@@H](Cc2ccccc2)C(=O)N1 (H-Y[dK]FFD-NH2; lactam 2-5) gave an ED50 (Mus musculus [12]) of 0.06 nmol and an IC50 [26] of 2.36 nM.

N=C(N)NCCC[C@@H](NC(=O)[C@@H](N)Cc1ccc(O)cc1)C(=O)N[C@@H](Cc1ccccc1)C(=O)NCC(=O)N[C@@H](Cc1ccc(O)cc1)C(=O)N1CCC[C@H]1C(=O)N[C@@H](CO)C(N)=O gave an ED50 (Mus musculus [27]) of 23 pmol, an IC50 (Mu-type opioid receptor [28]) of 90 nM and an ED50 (Mus musculus [29]) of 3.5 mg/kg.

Work on O=C1N[C@@H](Cc2ccccc2)C(=O)N2CCC[C@@H]2C(=O)N[C@@H](Cc2ccccc2)C(=O)N[C@H]1Cc1c[nH]c2ccccc12 yielded an ED50 (Mus musculus [1]) of 1.74 nmol, an ED50 [3] of 5.23 nmol and a half-life [5] of 49 min.
